Tests used:
[1] = Log BB screen: brain compound level and log BB in mice; format: in vivo; conditions: single i.v. injection; for concentration at 1 h: iv, 10 mg/ml, mouse, brain, read-out: Brain concentration 1 h after application
Protocol: Screening for brain compound level and log BB was done in mice. Compound was applied by a single i.v. injection. […] At least 3 animals were analyzed per compound. Animals were sacrificed 1 h after compound application and blood was collected by heart puncture. Serum was prepared from blood. Animals were perfused with PBS and brains were collected. Compound level in serum and brain were determined by HPLC-MS/MS analysis. Log BB were calculated as follows: [formula]

[2] = system: pGlu-Aβ3-42 in transgenic (tg) mice, which overexpress human AβQ3-42; experiment: Treatment of Aβ-transgenic mice, pGlu-Aβ ELISA of brain homogenates; format: in vivo
Protocol: 6 (1-(1H-benzo[d]imidazol-5-yl)-5-(4-propoxyphenyl)imidazolidine-2,4-dion). Example compound 6 was implemented into the chow and the transgenic animals were treated orally. The treatment is specified in the table below. The mice used in this study were produced as described in WO 2009/034158.
Following treatment, tg mice were sacrificed, the brains were removed from the skull, flushed with ice cold saline and placed shortly on filter paper. Brain tissues without cerebellum were homogenized (Dounce homogenizer) in 2.5 ml 2% SDS in distilled water (SDS wash fraction), sonificated and centrifuged at 75,500×g for 1 hour at 4° C. The supernatant was removed and the pellet resuspended in 0.5 ml 70% formic acid (formic acid fraction) and neutralized by addition of 9.5 ml 1 M Tris solution. The formic acid (FA) is considered as the homogenate containing the highly insoluble Aβ peptides, including pGlu-Aβ species (Kawarabayashi et al., (2001), J. Neurosci. 21, 372-381). Aβx-40, Aβx-42 and Aβ3(pE)-42 specific sandwich ELISAs (all from IBL, Hamburg, Germany) were performed according to the manufacturer's manual. Samples were diluted to fit within the range of the standard curve using EIA buffer, which is supplied with the ELISA kits.

SMILES | concentration at 1 h [1] [ng/g] | logBB mouse 1 h after i.v. injection [1] | pGlu-Aβ3-42 concentration in formic acid extracts ([2]; tg mice treated orally via chow (4.8 g/kg) for two months, vs placebo) | pGlu-Aβ3-42 concentration in formic acid extracts, brainstem ([2]; tg mice treated orally via chow for two months, brainstem)
O=C1NC(=O)N(c2ccc3[nH]cnc3c2)C1c1ccccc1Cl (stereo not shown) [Example 14, 1-(1H-benzo[d]imidazol-5-yl)-5-(2-chlorophenyl)imidazolidine-2,4-dione] | 20.2 | −1.6 | – | –
O=C1NC(=O)N(c2ccc3[nH]cnc3c2)C1c1ccc2nsnc2c1 (stereo not shown) [Example 1, 5-(benzo[c][1,2,5]thiadiazol-6-yl)-1-(1H-benzo[d]imidazol-5-yl)imidazolidine-2,4-dione] | 118 | −0.67 | – | –
O=C1NC(=O)C2(Cc3ccccc3C2)N1c1ccc2[nH]cnc2c1 [Example 32, 3-(1H-benzimidazol-5-yl)-1,3′-dihydro-2H,5H-spiro[imidazolidine-4,2′-indene]-2,5-dione] | 11.7 | −1.2 | – | –
CCCOc1ccc(C2C(=O)NC(=O)N2c2ccc3[nH]cnc3c2)cc1 (racemic) [Example 6, 1-(1H-benzo[d]imidazol-5-yl)-5-(4-propoxyphenyl)imidazolidine-2,4-dione] | 126 | −1.6 | significant reduction | below the limit of detection
O=C1NC(=O)N(c2ccc3[nH]cnc3c2)C1c1ccc(Cl)cc1 (stereo not shown) [Example 13, 1-(1H-benzo[d]imidazol-5-yl)-5-(4-chlorophenyl)imidazolidine-2,4-dione] | 31.4 | −1.4 | – | –
Cc1ccc(O)c(C2C(=O)NC(=O)N2c2ccc3[nH]cnc3c2)c1 (stereo not shown) [Example 3, 1-(1H-benzo[d]imidazol-5-yl)-5-(2-hydroxy-5-methylphenyl)imidazolidine-2,4-dione] | 17.1 | −1.42 | – | –
O=C1NC(=O)N(c2ccc3[nH]cnc3c2)C1c1ccc(Cl)c(C(F)(F)F)c1 (stereo not shown) [Example 7, 1-(1H-benzo[d]imidazol-5-yl)-5-(4-chloro-3-(trifluoromethyl)phenyl)imidazolidine-2,4-dione] | 38.2 | −2.5 | – | –

From patent US8962860B2, “Inhibitors of glutaminyl cyclase” (Probiodrug AG, priority 2008, dated 2015)
